Experimental data as given in ChEMBL document CHEMBL3045837, “Tobacco mosaic virus (TMV) inhibitors from Picrasma quassioides Benn” (J Agric Food Chem, 2009).
Calls of active or inactive are those of the source. The rule behind the calls is not given here.

Tests used:
Tobacco mosaic virus [1] = experiment: Antiviral activity against Tobacco mosaic virus U1 (TMV) infected Nicotiana tabacum cv. K326 leaves assessed as inhibition of viral replication at 50 ug/mL measured 48 hr after compound exposure by leaf-disk method; type: functional; details: U1, 48 h
Tobacco mosaic virus [2] = experiment: Antiviral activity against Tobacco mosaic virus U1 (TMV) infected Nicotiana glutinosa leaves assessed as inhibition of viral infection at 50 ug/mL using compound pre-treated virus suspension in presence of 25 ug/mL quassinoid nigakilactone B measured 5 to 6 days after compound exposure; type: functional
Tobacco mosaic virus [3] = experiment: Antiviral activity against Tobacco mosaic virus U1 (TMV) infected Nicotiana glutinosa leaves assessed as inhibition of viral infection at 50 ug/mL using compound pre-treated virus suspension measured 5 to 6 days after compound exposure; type: functional; details: U1, in Nicotiana glutinosa
Tobacco mosaic virus [4] = experiment: Antiviral activity against Tobacco mosaic virus U1 (TMV) infected Nicotiana tabacum cv. K326 leaves assessed as inhibition of viral replication at 50 ug/mL in presence of 25 ug/mL quassinoid nigakilactone B measured 48 hr after compound exposure by leaf-disk method; type: functional
Tobacco mosaic virus [5] = experiment: Antiviral activity against Tobacco mosaic virus U1 (TMV) infected Nicotiana tabacum cv. K326 leaves assessed as inhibition of viral replication in presence of 25 ug/mL quassinoid nigakilactone B measured 48 hr after compound exposure by leaf-disk method; type: functional, organism-based; details: U1, 48 h
Tobacco mosaic virus [6] = experiment: Antiviral activity against Tobacco mosaic virus U1 (TMV) infected Nicotiana glutinosa leaves assessed as inhibition of viral replication at 50 ug/mL in presence of 25 ug/mL quassinoid nigakilactone B measured 48 hr after compound exposure by half leaf method; type: functional
Tobacco mosaic virus [7] = experiment: Antiviral activity against Tobacco mosaic virus U1 (TMV) infected Nicotiana glutinosa leaves assessed as inhibition of viral replication at 50 ug/mL measured 48 hr after compound exposure by half leaf method; type: functional; details: U1, in Nicotiana glutinosa
Tobacco mosaic virus [8] = experiment: Antiviral activity against Tobacco mosaic virus U1 (TMV) infected Nicotiana tabacum cv. K326 leaves assessed as inhibition of viral replication measured 48 hr after compound exposure by leaf-disk method; type: functional, organism-based; details: U1, 48 h
Tobacco mosaic virus [9] = experiment: Inhibition of Tobacco mosaic virus U1 (TMV) coat protein accumulation using virus infected Nicotiana tabacum cv. K326 leaves at 50 ug/mL by SDS-PAGE and Western blotting method; type: functional, organism-based
Tobacco mosaic virus [10] = experiment: Inhibition of Tobacco mosaic virus U1 (TMV) coat protein accumulation using virus infected Nicotiana tabacum cv. K326 leaves by SDS-PAGE and Western blotting method; type: functional, organism-based

In the case of `COc1c(OC)c2nccc3c4ccccc4n(c1=O)c23` [4,5-DIMETHOXYCANTHIN-6-ONE], the inhibition at 50 µg/mL (Tobacco mosaic virus [1]) is reported as 42.6%, the “inhibition (INH)” value (Tobacco mosaic virus [2]) is reported as 61.1% and the inhibition at 50 µg/mL (Tobacco mosaic virus [3]) is reported as 58.3%. The “inhibition (INH)” value (Tobacco mosaic virus [4]) was 59%, the EC50 (Tobacco mosaic virus [5]) was 130 µM and the “inhibition (INH)” value (Tobacco mosaic virus [6]) was 43.8%. For the same compound, the inhibition at 50 µg/mL (Tobacco mosaic virus [7]) was 33.3% and the EC50 (Tobacco mosaic virus [8]) was 189 µM.
In the case of `COc1c(O)c2nccc3c4ccccc4n(c1=O)c23` [PICRASIDINE Q], the inhibition at 50 µg/mL (Tobacco mosaic virus [1]) is reported as 25.6%, the “inhibition (INH)” value (Tobacco mosaic virus [2]) is reported as 66.7% and the inhibition at 50 µg/mL (Tobacco mosaic virus [3]) is reported as 42.9%. The “inhibition (INH)” value (Tobacco mosaic virus [4]) was 52.6%, the “inhibition (INH)” value (Tobacco mosaic virus [6]) was 53.8% and the inhibition at 50 µg/mL (Tobacco mosaic virus [7]) was 35.7%.
For `CCc1nccc2c1[nH]c1c(OC)cccc12`, the inhibition at 50 µg/mL (Tobacco mosaic virus [1]) was 20.9%, the “inhibition (INH)” value (Tobacco mosaic virus [2]) was 50% and the inhibition at 50 µg/mL (Tobacco mosaic virus [3]) was 45.5%. The “inhibition (INH)” value (Tobacco mosaic virus [4]) was 48.4%, the “inhibition (INH)” value (Tobacco mosaic virus [6]) was 36.4% and the inhibition at 50 µg/mL (Tobacco mosaic virus [7]) was 25%.
For `CNCC(=O)N[C@@H](CO)C(=O)N[C@H]1[C@H](O)[C@@H](O)[C@H](n2ccc(N)nc2=O)O[C@@H]1C(N)=O` [NINGNANMYCIN], the inhibition at 50 µg/mL (Tobacco mosaic virus [1]) was 51%, the “inhibition (INH)” value (Tobacco mosaic virus [2]) was 55.6% and the inhibition at 50 µg/mL (Tobacco mosaic virus [3]) was 60%. For the same compound, the “inhibition (INH)” value (Tobacco mosaic virus [4]) was 52.6%, the EC50 (Tobacco mosaic virus [5]) was 129 µM and the “inhibition (INH)” value (Tobacco mosaic virus [6]) was 53.8%. For the same compound, the inhibition at 50 µg/mL (Tobacco mosaic virus [7]) was 54.5% and the EC50 (Tobacco mosaic virus [8]) was 135 µM.
For `COC1=C[C@@H](C)[C@@H]2C[C@H]3OC(=O)C[C@H]4[C@@H](C)[C@H](OC)[C@@H](O)[C@H]([C@@]2(C)C1=O)[C@@]34C` [NIGAKILACTONE B], the inhibition at 50 µg/mL (Tobacco mosaic virus [1]) was 3.2%, the inhibition at 50 µg/mL (Tobacco mosaic virus [3]) was 10% and the inhibition at 50 µg/mL (Tobacco mosaic virus [7]) was 6.7%. For the same compound, the inhibition (Tobacco mosaic virus [9]) was “inactive”.
`O=C1NC(=O)c2[nH]c3ccccc3c2C1=O` was tested, and the inhibition at 50 µg/mL (Tobacco mosaic virus [1]) was 29.5%, the “inhibition (INH)” value (Tobacco mosaic virus [2]) was 52.1% and the inhibition at 50 µg/mL (Tobacco mosaic virus [3]) was 44.4%. The “inhibition (INH)” value (Tobacco mosaic virus [4]) was 35.8%, the “inhibition (INH)” value (Tobacco mosaic virus [6]) was 33.3% and the inhibition at 50 µg/mL (Tobacco mosaic virus [7]) was 29.4%.
`COC(=O)c1ncc(O)c2c1[nH]c1ccccc12` was tested, and the inhibition at 50 µg/mL (Tobacco mosaic virus [1]) was 45.7%, the “inhibition (INH)” value (Tobacco mosaic virus [2]) was 69.2% and the inhibition at 50 µg/mL (Tobacco mosaic virus [3]) was 60%. The “inhibition (INH)” value (Tobacco mosaic virus [4]) was 62.3%, the “inhibition (INH)” value (Tobacco mosaic virus [6]) was 55.6% and the inhibition at 50 µg/mL (Tobacco mosaic virus [7]) was 41.7%.
`COc1cc2nccc3c4ccccc4n(c1=O)c23` [5-METHOXYCANTHINONE] was tested, and the inhibition at 50 µg/mL (Tobacco mosaic virus [1]) was 27.5%, the “inhibition (INH)” value (Tobacco mosaic virus [2]) was 58.3% and the inhibition at 50 µg/mL (Tobacco mosaic virus [3]) was 36.4%. The “inhibition (INH)” value (Tobacco mosaic virus [4]) was 45.7%, the “inhibition (INH)” value (Tobacco mosaic virus [6]) was 50% and the inhibition at 50 µg/mL (Tobacco mosaic virus [7]) was 40%.
In the case of `C=Cc1ncc(OC)c2c1[nH]c1c(OC)cccc12`, the inhibition at 50 µg/mL (Tobacco mosaic virus [1]) is reported as 39.7%, the “inhibition (INH)” value (Tobacco mosaic virus [2]) is reported as 58.3% and the inhibition at 50 µg/mL (Tobacco mosaic virus [3]) is reported as 53.3%. For the same compound, the “inhibition (INH)” value (Tobacco mosaic virus [4]) was 63%, the “inhibition (INH)” value (Tobacco mosaic virus [6]) was 47.1% and the inhibition at 50 µg/mL (Tobacco mosaic virus [7]) was 38.5%.
In the case of `COc1cccc2c3c([nH]c12)C(=O)NC(=O)C3=O`, the inhibition at 50 µg/mL (Tobacco mosaic virus [1]) is reported as 35.1%, the “inhibition (INH)” value (Tobacco mosaic virus [2]) is reported as 55.9% and the inhibition at 50 µg/mL (Tobacco mosaic virus [3]) is reported as 50%. For the same compound, the “inhibition (INH)” value (Tobacco mosaic virus [4]) was 59.8%, the EC50 (Tobacco mosaic virus [5]) was 183 µM and the “inhibition (INH)” value (Tobacco mosaic virus [6]) was 47.3%. The inhibition at 50 µg/mL (Tobacco mosaic virus [7]) was 39.5% and the EC50 (Tobacco mosaic virus [8]) was 257 µM.
In the case of `COc1cccc2c1[nH]c1c(CCC(=O)c3nccc4c3[nH]c3ccccc34)ncc(OC)c12`, the inhibition at 50 µg/mL (Tobacco mosaic virus [1]) is reported as 28.9%, the “inhibition (INH)” value (Tobacco mosaic virus [2]) is reported as 68.3% and the inhibition at 50 µg/mL (Tobacco mosaic virus [3]) is reported as 45.5%. The “inhibition (INH)” value (Tobacco mosaic virus [4]) was 64.8%, the EC50 (Tobacco mosaic virus [5]) was 78 µM and the “inhibition (INH)” value (Tobacco mosaic virus [6]) was 52.4%. For the same compound, the inhibition at 50 µg/mL (Tobacco mosaic virus [7]) was 39.4% and the EC50 (Tobacco mosaic virus [8]) was 131 µM.
For `COC(=O)c1nccc2c1[nH]c1ccccc12`, the inhibition at 50 µg/mL (Tobacco mosaic virus [1]) was 60.4%, the “inhibition (INH)” value (Tobacco mosaic virus [2]) was 73.3% and the inhibition at 50 µg/mL (Tobacco mosaic virus [3]) was 71.4%. For the same compound, the “inhibition (INH)” value (Tobacco mosaic virus [4]) was 71.9%, the EC50 (Tobacco mosaic virus [5]) was 115 µM and the “inhibition (INH)” value (Tobacco mosaic virus [6]) was 68.4%. The inhibition at 50 µg/mL (Tobacco mosaic virus [7]) was 47.4%, the EC50 (Tobacco mosaic virus [8]) was 179 µM and the inhibition (Tobacco mosaic virus [10]) was “Dose-dependent effect”.
